We go through 18 compounds from US5607948A, “Dipiperidine derivatives” (Sumitomo Pharmaceuticals Co., Ltd., priority 1993, dated 1997).

pIC50: −log10 of the molar value. Bounds are passed on as bounds.

The test system of experiment [1] is platelet aggregation in platelet-rich plasma (PRP). The experiment is described as follows: Platelet aggregation inhibiting effect (ADP-induced aggregation in platelet-rich plasma). The experiment is classed as cell-based, human (healthy man). As to conditions: Homo sapiens, PRP of a healthy person, ADP final concentration 3 μg/ml, 37° C., read-out: IC50 (concentration needed to inhibit the platelet aggregation by 50%). Here is the method:
Blood was collected from the elbow vein of a healthy person, to which was added 3.8% sodium citrate of 1/10 times by volume the blood. This was centrifuged at 1000 rpm (150 g) for 10 minutes, and the resulting supernatant of a platelet-rich plasma (PRP) was collected. 2 μl of a solution of a test compound was added to 200 μl of the PRP and kept at 37° C. for 2 minutes while stirring at 1000 rpm. Then, 22 μl of a platelet aggregation promoter of ADP (adenosine diphosphate, final concentration: 3 μg/ml) was added. The degree of platelet aggregation of the sample was measured by colorimetry, using a hematracer (ex Niko Bioscience Co.). The platelet aggregation inhibiting activity of the test compound was represented by IC50, which indicates the concentration of the compound that was needed to inhibit the platelet aggregation by 50%.

In the next experiment the test system is Collagen. The experiment is described as follows: Bonding of platelets to collagen. Type of experiment: binding. The conditions noted are these: activated, paraformaldehyde-fixed platelets; plate coated with collagen 5 μg/ml; 37° C. 2 hours; read-out: IC50, inhibition of bonding of platelets to Collagen. Here is the method:
(§1) 50 ng/ml of PGI2 was added to the PRP sample and subjected to centrifugation at 11000 rpm for 2 minutes, by which the platelets were precipitated. The platelet precipitate was washed with 3.8 mM Hepes buffer (pH 7.4, Tyrode-Hepes buffer) containing 0.14 M NaCl, 2.7 mM KCl, 3.7 mM NaH2 PO4, 0.98 mM MgCl2, 1 mg/ml of glucose, 50 ng/ml of PGI2 and 0.35% BSA. 5 μM epinephrine and 30 μM ADP were added in this order and left at room temperature for 5 minutes, by which the platelets were activated. These were then transferred into a 0.05% paraformaldehyde solution and left at room temperature for 30 minutes, whereby the platelets were fixed in the solution. The thus-fixed platelets were suspended in the Hepes buffer at a concentration of 2×10^8 ml^-1.
(§2) Fibrinogen (ex Kabi Co.), fibronectin (ex Sigma Co.) or collagen (ex Horm Co.) was diluted with 0.1 M NaHCO3 to have a concentration of 5 μg/ml, put into each well of a 96-well microplate (ex Nunc Co.) at 200 μl/well and left at 4° C. overnight. Then, the plate was washed with a phosphate buffered saline (PBS) and blocked with 3% BSA at 37° C. for 1 hour. To the plate were added the platelet suspension (final concentration: 10^8 ml^-1) and a varying concentration of a test compound (total amount: 200 μl/well), and the plate was kept at 37° C. for 2 hours. Then, this was washed with PBS, and 2 μg/ml of an anti-CD9 monoclonal antibody was added and kept at 37° C. for 60 minutes. Next, this was treated with a 1/1000 dilution of an enzyme (HRP)-labeled anti-mouse IgG polyclonal antibody at 37 °C. for 60 minutes, and 100 μl/well of an HRP-coloration substrate (0.1 M phosphate buffer with pH 5, containing 0.4 mg/ml of o-phenylenediamine, 0.01% H2 O2 and 0.1 M citric acid) was added and reacted at room temperature for 15 minutes. By adding 20 μl/well of 4.5 M H2 SO4, the reaction was stopped. Then, the absorbance of the thus-reacted sample at 490 nm was measured. […]

Another experiment relates to Fibronectin. Briefly: Bonding of platelets to fibronectin. Type of experiment: binding. As to conditions: activated, paraformaldehyde-fixed platelets; plate coated with fibronectin 5 μg/ml; 37° C. 2 hours; read-out: IC50, inhibition of bonding of platelets to Fibronectin. As to the method:
as §1, §2

A further experiment concerns the target T1, Fibrinogen (Homo sapiens, UniProt P05106+P08514).
T1 construct: endogenous in cells
Briefly: Bonding of platelets to fibrinogen. Type of experiment: binding. As to conditions: activated, paraformaldehyde-fixed platelets; plate coated with fibrinogen 5 μg/ml; 37° C. 2 hours; read-out: IC50, inhibition of bonding of platelets to Fibrinogen. As to the method: as §1, §2

T1 sequence (P08514 32-887 limits assumed): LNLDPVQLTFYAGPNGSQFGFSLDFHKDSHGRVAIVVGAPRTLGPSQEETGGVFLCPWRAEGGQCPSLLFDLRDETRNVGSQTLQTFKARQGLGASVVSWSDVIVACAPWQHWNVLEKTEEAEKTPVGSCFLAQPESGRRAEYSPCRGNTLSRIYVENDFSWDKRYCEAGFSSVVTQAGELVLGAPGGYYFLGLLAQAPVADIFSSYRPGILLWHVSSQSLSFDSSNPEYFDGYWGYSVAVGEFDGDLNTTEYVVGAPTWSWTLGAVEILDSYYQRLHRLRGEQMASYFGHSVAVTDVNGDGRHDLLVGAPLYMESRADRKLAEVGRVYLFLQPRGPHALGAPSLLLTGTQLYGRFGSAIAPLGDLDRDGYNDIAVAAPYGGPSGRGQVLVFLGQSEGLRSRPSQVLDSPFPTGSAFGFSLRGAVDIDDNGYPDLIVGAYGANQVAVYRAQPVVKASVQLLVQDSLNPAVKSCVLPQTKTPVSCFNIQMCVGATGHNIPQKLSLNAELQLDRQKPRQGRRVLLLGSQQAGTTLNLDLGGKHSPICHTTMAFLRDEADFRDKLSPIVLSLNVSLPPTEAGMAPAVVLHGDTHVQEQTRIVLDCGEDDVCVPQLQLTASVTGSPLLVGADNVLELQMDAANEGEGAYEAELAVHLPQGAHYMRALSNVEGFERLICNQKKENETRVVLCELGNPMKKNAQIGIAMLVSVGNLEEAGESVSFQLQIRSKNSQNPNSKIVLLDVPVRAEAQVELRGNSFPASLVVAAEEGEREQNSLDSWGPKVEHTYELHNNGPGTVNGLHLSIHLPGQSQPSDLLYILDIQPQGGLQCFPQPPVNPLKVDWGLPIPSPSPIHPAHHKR
T1 sequence (P08514 891-1039 limits assumed): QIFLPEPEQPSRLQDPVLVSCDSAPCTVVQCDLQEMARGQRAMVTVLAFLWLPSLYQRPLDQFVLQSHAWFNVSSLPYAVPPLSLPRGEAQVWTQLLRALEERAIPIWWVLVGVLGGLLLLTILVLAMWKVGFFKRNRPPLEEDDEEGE
T1 sequence (P05106 27-788): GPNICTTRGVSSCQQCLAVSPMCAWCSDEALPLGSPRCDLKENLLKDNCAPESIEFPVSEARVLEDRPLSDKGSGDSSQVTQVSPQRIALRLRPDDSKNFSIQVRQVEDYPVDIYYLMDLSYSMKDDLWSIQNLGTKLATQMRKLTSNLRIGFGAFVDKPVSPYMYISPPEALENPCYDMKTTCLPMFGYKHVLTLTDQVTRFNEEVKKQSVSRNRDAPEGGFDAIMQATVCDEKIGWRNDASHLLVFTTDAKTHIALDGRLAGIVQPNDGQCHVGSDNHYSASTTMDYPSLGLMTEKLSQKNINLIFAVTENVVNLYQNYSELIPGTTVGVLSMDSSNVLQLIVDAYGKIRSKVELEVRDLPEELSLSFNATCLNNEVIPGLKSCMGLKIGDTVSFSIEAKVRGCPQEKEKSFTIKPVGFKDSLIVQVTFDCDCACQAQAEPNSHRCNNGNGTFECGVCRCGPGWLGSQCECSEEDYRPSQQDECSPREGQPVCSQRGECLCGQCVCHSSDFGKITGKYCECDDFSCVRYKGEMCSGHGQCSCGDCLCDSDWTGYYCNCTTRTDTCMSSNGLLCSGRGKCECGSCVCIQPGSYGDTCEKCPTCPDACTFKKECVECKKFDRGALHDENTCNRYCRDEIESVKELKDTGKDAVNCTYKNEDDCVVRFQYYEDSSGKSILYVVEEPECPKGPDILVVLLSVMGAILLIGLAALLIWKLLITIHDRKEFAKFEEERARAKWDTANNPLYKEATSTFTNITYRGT

For the compound `O=C(O)COC1CCN(C(=O)[C@H](Cc2ccc(O)cc2)NC(=O)COC2CCNCC2)CC1` [Compound (19), (1-(N-(4-piperidyloxyacetyl)-L-tyrosyl)-4-piperidyloxy)acetic acid], in experiment [1], the pIC50 was 7.21.

As for `COc1ccc(C[C@H](NC(=O)COC2CCNCC2)C(=O)N2CCC(CCC(=O)O)CC2)cc1` [Compound (37)], the pIC50 in experiment [1] was 6.93. Take `O=C(O)CCC1CCN(C(=O)[C@H](Cc2ccc(O)cc2)NC(=O)COC2CCNCC2)CC1` [Compound (44), 3-(1-(N-(4-piperidyloxyacetyl)-L-tyrosyl)-4-piperidyl)propanoic acid]: the pIC50 in experiment [1] is 6.20. In the case of `C[C@H](NC(=O)CCC1CCNCC1)C(=O)N1CCC(OCC(=O)O)CC1` [Compound (23), (1-(N-(3-(4-piperidyl)propanoyl)-L-alanyl)-4-piperidyloxy)acetic acid], in experiment [1], the pIC50 was 6.41. For `COc1ccc(C[C@H](NC(=O)CCCC2CCNCC2)C(=O)N2CCC(OCC(=O)O)CC2)cc1` [Compound (18), (1-(N-(4-(4-piperidyl)butanoyl)-O-methyl-L-tyrosyl)-4-piperidyloxy)acetic acid], the pIC50 in the experiment with Collagen was under 4.00; in the experiment with Fibronectin, 5.14; in experiment [1], 6.17; at Fibrinogen, 4.20. In the same order, the values of `COc1ccc(C[C@H](NC(=O)COC2CCNCC2)C(=O)N2CCC(OCC(=O)O)CC2)cc1` [Compound (15)] are under 4.00, 6.62, 7.32 and 6.60. Regarding `O=C(O)COC1CCN(C(=O)[C@H](Cc2ccc(O)cc2)NC(=O)CCC2CCNCC2)CC1` [Compound (20), (1-(N-(3-(4-piperidyl)propanoyl)-L-tyrosyl)-4piperidyloxy)acetic acid], the pIC50 in experiment [1] is 6.87. The same measure, in the same setting: to `CC(C)C[C@H](NC(=O)CCC1CCNCC1)C(=O)N1CCC(OCC(=O)O)CC1` [Compound (26), (1-(N-(3-(4-piperidyl)propanoyl)-L-leucyl)-4-piperidyloxy)acetic acid] belongs 6.03; to `O=C(O)COC1CCN(C(=O)[C@H](CO)NC(=O)CCC2CCNCC2)CC1` [Compound (29), (1-(N-(3-(4-piperidyl)propanoyl)-L-seryl)-4-piperidyloxy)acetic acid], 6.05. Still for that read-out and setting: then `O=C(O)COC1CCN(C(=O)[C@H](Cc2ccccc2)NC(=O)CCC2CCNCC2)CC1` [Compound (21), (1-(N-(3-(4-piperidyl)propanoyl)-L-phenylalanyl)-4-piperidyloxy)acetic acid], with 6.04; and `O=C(O)COC1CCN(C(=O)[C@@H]2CCCN2C(=O)CCC2CCNCC2)CC1` [Compound (25), (1-(N-(3-(4-piperidyl)propanoyl)-L-prolyl)-4-piperidyloxy)acetic acid], with 6.50; and `CC(C)[C@H](NC(=O)CCC1CCNCC1)C(=O)N1CCC(OCC(=O)O)CC1` [Compound (22), (1-(N-(3-(4-piperidyl)propanoyl)-L-valyl)-4-piperidyloxy)acetic acid], with 5.96. The same measure, in the same setting: then `O=C(O)CCC1CCN(C(=O)[C@H](Cc2ccc(O)cc2)NC(=O)CCC2CCNCC2)CC1` [Compound (42), 3-(1-(N-(3-(4-piperidyl)propanoyl)-L-tyrosyl)-4-piperidyl)propanoic acid], with 5.76. Regarding `COc1ccc(C[C@H](NC(=O)CCC2CCNCC2)C(=O)N2CCC(CCC(=O)O)CC2)cc1` [Compound (35), 3-(1-(N-(3-(4-piperidyl)propanoyl)-O-methyl-L-tyrosyl)-4-piperidyl)propanoic acid], in experiment [1], the pIC50 is 6.15. Consider `O=C(O)COC1CCN(C(=O)CNC(=O)CCC2CCNCC2)CC1` [Compound (24)], for which the pIC50 in experiment [1] was 5.62.

Consider `COc1ccc(C[C@H](NC(=O)CCC2CCNCC2)C(=O)N2CCC(OCC(=O)O)CC2)cc1` [Compound (12)], for which the pIC50 with Collagen was under 4.00; in the experiment on Fibronectin, 4.17; in experiment [1] it was 7.22; on Fibrinogen, 6.35.

Regarding `O=C(O)COC1CCN(C(=O)[C@H](Cc2c[nH]c3ccccc23)NC(=O)CCC2CCNCC2)CC1` [Compound (28), (1-(N-(3-(4-piperidyl)propanoyl)-L-tryptophyl)-4-piperidyloxy)acetic acid], the pIC50 in experiment [1] was 6.36. Still for that read-out and setting: to `CC[C@H](C)[C@H](NC(=O)CCC1CCNCC1)C(=O)N1CCC(OCC(=O)O)CC1` [Compound (27), (1-(N-(3-(4-piperidyl)propanoyl)-L-isoleucyl)-4-piperidyloxy)acetic acid] belongs 6.29.
